Measurements: patent US20240059739A1, “PEPTIDES FOR INCREASING DRUG DELIVERY TO CANCER” (Chapman University, priority 2022, published 2024)

What was measured:
[1] = tested on: human melanoma cell lines (A375, Sk-mel-28, wm115) compared to normal human HEK-293 cells; experiment: Peptide array-whole cell binding assay (CyQUANT fluorescence); assay type: cell-based; details: average fluorescent intensity of melanoma cells (A375, Sk-mel-28, wm115) bound to peptide divided by that of HEK-293 cells bound to same peptide
Source text: Peptide array synthesis. Fifty-three peptide sequences were synthesized in duplicate on derivatized cellulose membrane (Intavis, Germany) using a ResPep SL Autospot robot. The detailed method was explained previously (Ahmed et al. Anal Chem. 82:7533-7541, 2010; Hossein-Nejad-Ariani et al. Sci Rep. 9:2723, 2019). Briefly, the sequences of peptides were entered in the robot software, and 384 spot synthesis mode was selected for this library. First, the membrane was dipped in DMF for an hour followed by transfer and support to the holder of the robot on filter paper. Then the membrane was washed with ethanol and subjected to a vacuum to remove any bubbles under the membrane. The Fmoc strategy was used for peptide synthesis. DIC and Oxyma pure were used as coupling reagent and racemization suppressor, respectively. After each coupling, capping of unreacted amino acids was done using acetic anhydride (3%), followed by 20% piperidine for Fmoc deprotection. The C-terminal end of all peptides were bound to the membrane. Following the synthesis, the membrane was dipped in deprotection solution containing 15 mL TFA, 15 mL DCM, 900 μL TIPS, and 600 μL water, and kept for 3 h at room temperature. Next, membranes were thoroughly washed with DCM, DMF, and ethanol. Finally, they were air dried and kept in a sealed bag at −20° C. until use.
Peptide array cell binding assay. The sequential steps of the assay are as described in a previous publication (Ahmed et al. 2010; Soudy et al. J Med Chem. 54:7523-7534, 2011). The membrane was dipped in ethanol for 30 sec to remove any precipitation of hydrophobic peptides. Then the membrane was dipped in sterile PBS at pH 7.4 for 30 min. The cells (75×10^3 cells/mL) were seeded directly on the membrane in a sterile plate and incubated at 37° C. for 4 h. After washing off the unbound cells with sterile PBS, pH 7.4, the membrane was frozen at −80° C. for 2 h. Subsequently, it was defrosted at room temperature and incubated in CyQUANT solution at 37° C. for 30 min following the manufacturer's protocol. The membrane was then washed with sterile PBS and air-dried.
Membranes were scanned using the ChemiDoc™ XRS+system (Bio-Rad) to analyze the fluorescence intensity of each spot. The setting was adjusted based on the excitation and emission wavelength of the CyQUANT dye at 465 nm and 535 nm, respectively. The fluorescence intensity (FI) was normalized by the FI of non-cancerous HEK-293 cells.
A library of 53 peptides was synthesized in an array format on a cellulose membrane using SPOT synthesis (Table 1). The peptide library was designed starting with five lead cancer cell targeting peptides, Arg peptide (1, Table 1), p160 analogue (11), RGD (16), GE11 (20), and LSD (37). Conservative substitutions, deletion from the N- or C-terminus, alanine scan, and scrambling of amino acids were used to design the analogues for the library. The peptides were screened for specific binding to three human melanoma cell lines. The cells were incubated with the cellulose membranes with conjugated peptides followed by incubation with CyQUANT fluorescence dye. A brief schematic for the peptide array-whole cell binding assay for screening peptides with high affinity for melanoma cells is shown in FIG. 2A. The relative cell adhesion capacities of the peptides to A375 (FIG. 2B), Sk-mel-28 (FIG. 2C), and wm115 were estimated based on the fluorescence of the bound melanoma cells compared to normal human HEK-293 cells.

[2] = tested on: human melanoma A375 tumor xenografts and organs; experiment: In vivo and ex vivo imaging of biodistribution in mice bearing A375 xenografts; set-up: species or system athymic nude mice
Procedure: FIG. 4A and FIG. 4B-1 and FIG. 4B-2 show in vivo and ex vivo organ distribution images of VivoTag 680 XL-labeled D-aa KK-11 in athymic nude mice bearing human melanoma A375 tumors. Saline or VivoTag-KK-11 in a dose of 8 μg per mouse was injected into the mice via the tail vein (n=2 for each time point).
The top panels represent the scanned images of the tumor section area in coronal views. The bottom-row pictures display the fluorescence image in trans-axial views: arrows point to the spine, and circles mark the xenograft tumors.
Organs including tumor xenografts (T), liver (L), spleen (S), heart and lungs (H+L), kidneys (K), and brain (B) were excised and imaged using the IVIS Spectrum imaging system. Representative fluorescence images of different organs show peptide distribution at different time points as indicated.
Ex vivo and in vivo imaging. The study was carried out in compliance with Animal Research: Reporting of In Vivo Experiments (ARRIVE) guidelines. All the animal procedures were approved by the Institutional Animal Care and Use Committee (IACUC) at Chapman University and conducted in compliance with the policies of Chapman University, and federal, state, and local animal welfare authorities. Male and female athymic nude mice (4-6 weeks old) were kept (5 in each cage) in a pathogen-free environment. Approximately 10^6 human melanoma A375 cells (0.1 mL in normal saline), mixed with 0.1 mL cold Matrigel (#354248; Corning, Corning, NY), were injected subcutaneously in the flank. The tumor size was measured with a caliper, and body weight was recorded once a week. When the tumor size reached approximately 800-1000 mm^3 as calculated using the following formula: [Length×(Width^2)]/2 (in mm), mice were processed for in vivo or ex vivo imaging.
For in vivo imaging, normal saline or VivoTag-KK-11 at a dose of 8 μg per mouse was injected into the mice via the tail vein (n=2 for each time point). The animals were then scanned at different time intervals (0.5, 2, 6, and 24 h) using an IVIS Spectrum in vivo imaging system (PerkinElmer, Waltham, MA). The mice were imaged for 0.5 sec, 10 bin, level B at an emission wavelength of 688±5 nm. Imaging was limited to no more than once a day and was conducted under continuously maintained isoflurane. Mice were maintained on alfalfa-free diets to minimize the background fluorescence. All the study animals survived through the in vivo imaging procedure.
For ex vivo imaging at defined time intervals (5, 15, 30 min, followed by 1, 1.5, 2, 3, 4, 6, 24, and 48 h) following fluorescence conjugate injection, animals were euthanized via carbon dioxide inhalation (n=2 for each time point); tumor, liver, spleen, heart, lungs, brain, and kidneys were collected and briefly rinsed with saline. The organs were then imaged for 0.5 sec, 10 bin, level B at an emission wavelength of 688±5 nm using an IVIS Spectrum imaging system.

[3] = in vivo IVIS CT-fluorescence imaging of live mice

| Substance | Fluorescence Ratio [1] | further results |
| --- | --- | --- |
| CLSDGARKC [Peptide 46] | 1.35 | – |
| CLADGKRKC [Peptide 43] | 1.26 | – |
| CLSDGKRKA [Peptide 49] | 1.57 | – |
| AHWYGYTPQNVI [Peptide 23] | 1.31 | – |
| ALSDGKRKA [Peptide 40] | 1.23 | – |
| YAWYGYTPQNVI [Peptide 24] | 1.15 | – |
| YHWYGYTPQNVA [Peptide 33] | 1.35 | – |
| RGDAAYQRFL [Peptide 16] | 1.47 | – |
| CASDGKRKC [Peptide 42] | 1.25 | – |
| GRAPRPRPRP [Peptide 7] | 1.47 | – |
| CLSDAKRKC [Peptide 45] | 1.22 | – |
| GRRPRPRPRPW [Peptide 2] | 1.60 | – |
| CLSDGRRKC [Peptide 51] | 1.32 | – |
| YHWAGYTPQNVI [Peptide 26] | 1.29 | – |
| YHWYGYTPQAVI [Peptide 31] | 1.33 | – |
| EPAAYQRFTA [Peptide 13] | 1.39 | – |
| WXEAAYQRFL [Peptide 12] | 1.31 | – |
| YHWYGYAPQNVI [Peptide 28] | 1.26 | – |
| YHWYGTPQNVI [Peptide 20] | 1.20 | – |
| VivoTag- Aβ-VPWxEPAYQrFL [VivoTag-KK-11] | – | brain penetration ([2]; ex vivo imaging): no brain penetration was observed; time by which cleared from other organs (lungs, heart, spleen) ([2]; ex vivo imaging): ≤ 6 h; time detected in kidneys ([2]; ex vivo imaging): up to 48 h; time at which fluorescence is evident in tumor xenografts ([2]; ex vivo imaging, 8 μg per mouse, tail vein): ≤ 5 min; time by which distributed to the xenograft tumor [2, 3]: ≤ 30 min; time fluorescence remained detectable in tumor xenografts [2, 3]: 25 h |
| CLSDGKAKC [Peptide 47] | 1.27 | – |
| GRRPRPAPRP [Peptide 9] | 1.51 | – |
| GARPRPRPRP [Peptide 6] | 1.37 | – |
| WQTNYIHPYVYG [Peptide 21] | 1.21 | – |
| GRRPAPRPRP [Peptide 8] | 1.57 | – |
| GRRPRPRPAP [Peptide 10] | 1.31 | – |

| Substance | Fluorescence Ratio [1] | further results |
| --- | --- | --- |
| RGEPAYQGRFL [Peptide 18] | 1.24 | – |
| RGDPAYQGRFL [Peptide 19] | 1.35 | – |
| YHWYGYTAQNVI [Peptide 29] | 1.32 | – |
| YHWYGATPQNVI [Peptide 27] | 1.19 | – |
| YHWYGYTPQKVI [Peptide 36] | 1.23 | – |
| ADRSKGKLA [Peptide 39] | 1.27 | – |
| CLSEGKRKC [Peptide 50] | 1.38 | – |
| WLSDGKRKC [Peptide 53] | 1.12 | – |
| FVPWLEAPYA [Peptide 15] | 1.61 | – |
| CLSDGKRAC [Peptide 48] | 1.12 | – |
| YHWYGYTPENVI [Peptide 34] | 1.36 | – |
| YHWYGYTPANVI [Peptide 30] | 1.30 | – |
| YGPWYNHYITQV [Peptide 22] | 1.28 | – |
| AGRKLDSKA [Peptide 38] | 1.39 | – |
| CLSDGKRRC [Peptide 52] | 1.27 | – |
| GRRPRPRPRPWWW [Peptide 4] | 1.46 | – |
| RGEPAYQRFL [Peptide 17] | 1.30 | – |
| YHWYGYTPQNAI [Peptide 32] | 1.29 | – |
| YHWYGYTPQDVI [Peptide 35] | 1.35 | – |
| ALSGKRKC [Peptide 41] | 1.32 | – |
| RVPWLEAPYA [Peptide 14] | 1.42 | – |
| GRRPRPRPRPWW [Peptide 3] | 1.50 | – |
| CLSAGKRKC [Peptide 44] | 1.44 | – |
| YHAYGYTPQNVI [Peptide 25] | 1.28 | – |
| CLSDGKRKC [Peptide 37] | 1.29 | – |
| GRRPRPRPRPWWWW [Peptide 5] | 1.43 | – |
